The Ki is a measure of affinity in units of concentration, obtained from inhibition or displacement.

T1 sequence (P37288 whole entry): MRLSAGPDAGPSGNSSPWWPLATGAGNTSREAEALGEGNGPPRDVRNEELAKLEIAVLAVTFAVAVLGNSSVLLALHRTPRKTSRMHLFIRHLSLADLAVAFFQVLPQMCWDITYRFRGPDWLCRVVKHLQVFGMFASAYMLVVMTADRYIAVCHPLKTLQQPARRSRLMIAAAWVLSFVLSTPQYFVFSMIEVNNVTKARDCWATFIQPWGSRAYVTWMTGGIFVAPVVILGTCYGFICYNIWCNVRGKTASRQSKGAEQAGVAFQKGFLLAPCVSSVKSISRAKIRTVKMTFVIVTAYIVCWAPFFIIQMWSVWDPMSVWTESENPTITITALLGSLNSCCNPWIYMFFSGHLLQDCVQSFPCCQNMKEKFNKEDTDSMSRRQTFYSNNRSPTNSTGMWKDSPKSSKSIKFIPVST

The experiment has as its target T1, human V1a receptor (Homo sapiens, UniProt P37288).
T1 construct: expressed in transfected cells; host or cells: HEK293 cells, transiently transfected; membrane preparation
The experiment can be described thus: human V1a receptor binding (3H-Vasopressin SPA, membranes of transfected HEK293 cells). Conditions: displacement of 3H-Vasopressin; Ki calculated from IC50 using the Cheng-Prussoff equation. On the procedure:
The human V1a receptor was cloned by RT-PCR from total human liver RNA. The coding sequence was subcloned in an expression vector after sequencing to confirm the identity of the amplified sequence. […] Cell membranes were prepared from HEK293 cells transiently transfected with the expression vector and grown in 20 liter fermenters with the following protocol.
50 g of cells were resuspended in 30 ml freshly prepared ice cold Lysis buffer (50 mM HEPES, 1 mM EDTA, 10 mM MgCl2 adjusted to pH=7.4+complete cocktail of protease inhibitor (Roche Diagnostics)), homogenized with Polytron for 1 min, and sonicated on ice for 2×2 minutes at 80% intensity (Vibracell sonicator). The preparation was centrifuged 20 min at 500 g at 4° C., the pellet was discarded, and the supernatant centrifuged 1 hour at 43'000 g at 4° C. (19'000 rpm). The pellet was resuspended in 12.5 ml Lysis buffer+12.5 ml Sucrose 20% and homogenized using a Polytron for 1-2 min. The protein concentration was determined by the Bradford method and aliquots were stored at −80° C. until use. For binding studies, 60 mg Yttrium silicate SPA beads (Amersham) were mixed with an aliquot of membrane in binding buffer (50 mM Tris, 120 mM NaCl, 5 mM KCl, 2 mM CaCl2, 10 mM MgCl2) for 15 minutes with mixing. 50 ul of bead/membrane mixture was then added to each well of a 96 well plate, followed by 50 ul of 4 nM 3H-Vasopressin (American Radiolabeled Chemicals). For total binding measurement 100 ul of binding buffer were added to the respective wells, for non-specific binding 100 ul of 8.4 mM cold vasopressin were added, and for compound testing 100 ul of a serial dilution of each compound in 2% DMSO were added. The plate was incubated Ih at room temperature, centrifuged 1 min at 1000 g and counted on a Packard Top-Count. Non-specific binding counts were subtracted from each well and data was normalized to the maximum specific binding set at 100%. To calculate an IC 50, the curve was fitted using a non-linear regression model (XLfit) and the Ki was calculated using the Cheng-Prussoff equation.
On to `N#CCn1c(C(=O)N2CCC(n3c(=O)[nH]c4ccccc43)CC2)cc2cc(Br)ccc21` [Example 3, {5-Bromo-2-[4-(2-oxo-2,3-dihydro-benzoimidazol-1-yl)-piperidine-1-carbonyl]-indol-1-yl}-acetonitrile], for which the Ki was 12 nM. Under `COc1ccc2[nH]c(C(=O)N3CCC(n4c(=O)[nH]c5ccccc54)CC3)c(NC(=O)c3ccccc3[N+](=O)[O-])c2c1` [Example 10, N-{5-Methoxy-2-[4-(2-oxo-2,3-dihydro-benzoimidazol-1-yl)-piperidine-1-carbonyl]-1H-indol-3-yl}-2-nitro-benzamide] stands 20 nM; under `Cc1ccc2[nH]c(C(=O)N3CCC(n4c(=O)[nH]c5ccccc54)CC3)c(NC(=O)c3ccc(F)cc3)c2c1` [Example 11], 39.8 nM.

As to `CCOC(=O)Cc1c(C(=O)N2CCC(n3c(=O)[nH]c4ccccc43)CC2)[nH]c2ccccc12` [Example 14, {2-[4-(2-Oxo-2,3-dihydro-benzoimidazol-1-yl)-piperidine-1-carbonyl]-1H-indol-3-yl}-acetic acid ethyl ester], the Ki is 41.7 nM. Consider `O=C(c1cc2cccc(OCc3ccccc3)c2[nH]1)N1CCC(n2c(=O)[nH]c3ccccc32)CC1` [Example 37, 1-[1-(7-Benzyloxy-1H-indole-2-carbonyl)-piperidin-4-yl]-1,3-dihydro-benzoimidazol-2-one], for which the Ki was 21.9 nM. Consider `N#CCn1c(C(=O)N2CCC(n3c(=O)[nH]c4ccccc43)CC2)cc2cc(Cl)ccc21` [Example 45, {5-Chloro-2-[4-(2-oxo-2,3-dihydro-benzoimidazol-1-yl)-piperidine-1-carbonyl]-indol-1-yl}-acetonitrile], for which the Ki was 32 nM. The same measure for `N#CCc1cc(Cl)cc2cc(C(=O)N3CCC(n4c(=O)[nH]c5ccccc54)CC3)[nH]c12` [Example 46, {5-Chloro-2-[4-(2-oxo-2,3-dihydro-benzoimidazol-1-yl)-piperidine-1-carbonyl]-1H-indol-7-yl}-acetonitrile]: 35.5 nM; for `O=C(c1cc2cc(Cl)ccc2[nH]1)N1CCC(N2C(=O)Cc3ccccc32)CC1` [Example 47, 1-[1-(5-Chloro-1H-indole-2-carbonyl)-piperidin-4-yl]-1,3-dihydro-indol-2-one]: 64.6 nM. The same measure for `O=C(c1cc2cc(Cl)ccc2[nH]1)N1CCC(n2nnc3ccccc32)CC1` [Example 48, (4-Benzotriazol-1-yl-piperidin-1-yl)-(5-chloro-1H-indol-2-yl)-methanone]: 385 nM.
